According to patent US20250041281A1, “METHOD OF TREATING BILIARY TRACT CANCER” (J-PHARMA CO., LTD., priority 2023, published 2025):
Where “and” joins values, the source holds several entries; their conditions need not be identical. Equal entries are not always repeated. Entries after “also recorded” stand apart in the source; their conditions may differ.

Legend:
[1] = cited from earlier work
[2] = Phase II randomized placebo-controlled trial, safety (adverse events); format: in vivo
Protocol: As Phase II trial of Nanvuranlat, a multicenter, randomized, placebo-controlled, double-blind, parallel-group Phase II trial was conducted at 14 centers in Japan for patients with advanced biliary tract cancer who were refractory or intolerant of standard treatment. Patients were randomized in a 2:1 ratio to receive the drug or placebo using biliary tract cancer (BTC) subtype and resection status as allocation factors. […] Administration of the trial drug was continued until the discontinuation criteria were met. The primary endpoint was progression-free survival using RECIST 1.1 based on Blinded Independent Central Review. Images were obtained every 6 weeks from the start date and at discontinuation. PFS was defined as the date of the first documented progressive disease (PD) or death for any reason after randomization. The primary evaluation was conducted in the full analysis set (FAS) population, which consisted of all biliary tract cancer patients randomized to one of the arms. The safety evaluation was conducted in the SAFETY population, which was randomly assigned to one of the arms and received the trial drug. Nanvuranlat was used as monohydrochloride monohydrate.
(§1) The trial drug was administered by 90-minute infusion at the investigator's site (all patients were admitted during the first treatment cycle). Patients, drug administrators, and clinical trial coordinators were blinded to trial treatment. Nanvuranlat was used as monohydrochloride monohydrate.
Secondary endpoint was overall survival (OS), disease control rate (DCR) as assessed by BICR, and safety. […] Blood and urinary concentrations of Nanvuranlat and its metabolite N-acetyl-JPH203 (NAc-JPH203) were evaluated.
The primary efficacy analysis was performed using a full analysis set (FAS) population that included all randomly assigned BTC patients within their designated treatment group. The safety analysis population included all patients who received at least one trial treatment (safety population).
Statistics were used to summarize safety data, response rates, pharmacokinetic and pharmacodynamic data. Unless otherwise specified, all reported p-values are one-sided. Statistical analysis was performed using SAS software (version 9.4).

[3] = test system: advanced biliary tract cancer refractory or intolerant to standard chemotherapy; experiment: Phase II randomized placebo-controlled trial, efficacy (PFS by BICR, OS, DCR); format: in vivo, human; design: disease control rate (DCR: CR+PR+SD) / Share of disease control patients with high LAT1 expression / Share of disease control patients with low LAT1 expression: concentration or dose not given beside the values
Protocol: As Phase II trial of Nanvuranlat, a multicenter, randomized, placebo-controlled, double-blind, parallel-group Phase II trial was conducted at 14 centers in Japan for patients with advanced biliary tract cancer who were refractory or intolerant of standard treatment. Patients were randomized in a 2:1 ratio to receive the drug or placebo using biliary tract cancer (BTC) subtype and resection status as allocation factors. The non-rapid (Slow and/or Intermediate) genotype was set as the NAT2 genotype for selection criteria, and based on the results of the PI study conducted earlier, 25 mg/m2 of Nanvuranlat or placebo was administered intravenously for 5 consecutive days and rested for 9 days (14 days: 1 cycle). Administration of the trial drug was continued until the discontinuation criteria were met. The primary endpoint was progression-free survival using RECIST 1.1 based on Blinded Independent Central Review. Images were obtained every 6 weeks from the start date and at discontinuation. PFS was defined as the date of the first documented progressive disease (PD) or death for any reason after randomization. The primary evaluation was conducted in the full analysis set (FAS) population, which consisted of all biliary tract cancer patients randomized to one of the arms. The safety evaluation was conducted in the SAFETY population, which was randomly assigned to one of the arms and received the trial drug. Nanvuranlat was used as monohydrochloride monohydrate.
Kaplan-Meier estimates corresponding to the event time points are calculated and plotted for each treatment group. Confidence intervals for the Kaplan-Meier estimates are constructed using the log-log method with standard errors approximated by the greenwood formula. Point estimates at the 25%, 50%, and 75% of survival time and 95% confidence intervals are obtained and presented in tabular form. The Brookmeyer and Crowley method is used to construct the confidence intervals for survival time percentiles.
Fitting to a stratified Cox proportional hazards model, the hazard ratio exp((β_drug)Λ) and its 95% confidence interval are estimated and presented in tabular and forest plot form, along with the p-value of the Wald test corresponding to the null hypothesis “β_drug=0; exp(β_drug)=1”.
Stratification factor 1: “Facility,” “Gall bladder cancer and other cancers,” and “Existence or nonexistence of primary tumor resection history” Stratification factor 2: “Biliary tract cancer subtype (intrahepatic biliary tract cancer, extrahepatic biliary tract cancer, […], or duodenal papillary carcinoma)” and “Existence or nonexistence of primary tumor resection history”
This test was a multicenter, randomized, double-blind, placebo-controlled, Phase II trial conducted at 14 major cancer centers/hospitals in Japan. Patients were randomly assigned to the Nanvuranlat or placebo group (2:1), stratified by BTC subtype and whether the primary cancer lesion had been resected, generated by an independent statistical group. Randomization to the two treatment groups was performed by IWRS (Interactive Web-based Response System) and generated by an independent statistical group.
as §1, with “Nanvuranlat 25 mg/m^2/day or placebo was administered intravenously for 5 consecutive days, followed by a 9-day rest period (=14 days: 1 cycle). The” for “The”
Treatment with additional cycles was to continue until disease progression, the occurrence of other unacceptable toxicities, pregnancy confirmation, death, withdrawal of consent, loss to follow-up, unblinding of the trial, or termination of the trial, as determined by the investigator. […]

## Nc1cc(COc2c(Cl)cc(C[C@H](N)C(=O)O)cc2Cl)c2oc(-c3ccccc3)nc2c1 [Nanvuranlat, O-(5-amino-2-phenylbenzoxazol-7-yl)methyl-3,5-dichloro-L-tyrosine]
[1]; 17 patients with solid tumors
  maximum tolerated dose: 60 mg/m^2
[1]; only in patients with the Rapid form of NAT2
  Grade 3 hepatic dysfunction, number of patients: two
[2]; fatigue, decreased platelet count, hypertension
  Grade 3 or higher treatment-related adverse events: three
[2]; n = 70
  Abdominal discomfort, All grades: 2 (2.9%) n (%)
  At least one adverse event, All grades: 60 (85.7%) n (%)
  At least one adverse event, ≥ Grade 3: 21 (30.0%) n (%)
  Blood creatinine elevation, All grades: 1 (1.4%) n (%)
  Cancer pain, All grades: 6 (8.6%) n (%)
  Cancer pain, ≥ Grade 3: 1 (1.4%) n (%)
  Cholangitis, All grades: 10 (14.3%) n (%)
  Cholangitis, ≥ Grade 3: 9 (12.9%) n (%)
  Constipation, All grades: 10 (14.3%) n (%)
  Diarrhea, All grades: 8 (11.4%) n (%)
  Diarrhea, ≥ Grade 3: 1 (1.4%) n (%)
  Fatigue, All grades: 1 (1.4%) n (%)
  Fever, All grades: 9 (12.9%) n (%)
  High blood pressure, All grades: 5 (7.1%) n (%)
  High blood pressure, ≥ Grade 3: 2 (2.9%) n (%)
  Hypophagia, All grades: 16 (22.9%) n (%)
  Insomnia, All grades: 8 (11.4%) n (%)
  Malaise, All grades: 11 (15.7%) n (%)
  Malaise, ≥ Grade 3: 1 (1.4%) n (%)
  Nasopharyngitis, All grades: 1 (1.4%) n (%)
  Nausea, All grades: 9 (12.9%) n (%)
  Pruritus, All grades: 5 (7.1%) n (%)
  Rash, All grades: 2 (2.9%) n (%)
  Stomatitis, All grades: 4 (5.7%) n (%)
  Tumor pain, All grades: 1 (1.4%) n (%)
  Vomiting, All grades: 5 (7.1%) n (%)
[2]; safety population n=70
  adverse events of Grade 3 or higher: 30.0%
  frequency of all adverse events: 85.7%
  serious adverse events: 21.4%
  treatment-related adverse events: 41.4%
[2]; trial observation period
  discontinuations or dose reductions: no discontinuations or dose reductions; also recorded: Neither discontinuations nor dose reductions were considered as treatment related
  treatment-related deaths: no deaths suspected to be related to Nanvuranlat; also recorded: No treatment-related deaths; also recorded: no deaths or discontinuations linked to treatment
[3]; FAS all patients n=104, 25 mg/m2 iv 5 days, 9 days rest
  PFS hazard ratio (HR) by BICR vs placebo: 0.557
[3]; FAS, Nanvuranlat group n=69
  Median PFS: 46.0 days
  progression-free survival rate at 1.5 months: 53.6% and 62.3%
  progression-free survival rate at 3 months: 14.5% and 23.2%
[3]; IHC, LAT1 high
  Overall survival HR vs placebo, LAT1 high-expressing subgroup with IHC: 0.35
[3]; LAT1 score 0
  Number of patients with controlled diseases, LAT1 score 0: 1
[3]; LAT1 score 1
  Number of patients with controlled diseases, LAT1 score 1: 2
[3]; LAT1 score 2
  Number of patients with controlled diseases, LAT1 score 2: 0
[3]; LAT1 score 3
  Number of patients with controlled diseases, LAT1 score 3: 0
[3]; LAT1 score 4
  Number of patients with controlled diseases, LAT1 score 4: 2
[3]; LAT1 score 4-9, n=65
  PFS HR by BICR vs placebo, LAT1 high expression subgroup: 0.439
[3]; LAT1 score 6
  Number of patients with controlled diseases, LAT1 score 6: 4
[3]; LAT1 score 9
  Number of patients with controlled diseases, LAT1 score 9: 5
[3]; Nanvuranlat group, LAT1 high
  Number of disease control patients with high LAT1: 11
[3]; Nanvuranlat group, total
  Number of patients with controlled diseases: 17
[3]; by BICR, Nanvuranlat group
  disease control rate (DCR: CR+PR+SD): 24.6%
[3]; extrahepatic biliary tract cancer, 95% CI in brackets
  PFS HR vs placebo, subgroup EHC: 0.150 (0.0437-0.5153)
[3]; full population of FAS
  Overall survival HR vs placebo: 0.849
[3]; gall bladder cancer, 95% CI in brackets
  PFS HR vs placebo, subgroup GBC: 0.287 (0.1009-0.8183)
[3]; intrahepatic biliary tract cancer, 95% CI in brackets
  PFS HR vs placebo, subgroup IHC: 0.872 (0.4359-1.7458)
[3]; of 17 disease control patients
  Share of disease control patients with high LAT1 expression: 64.7%
  Share of disease control patients with low LAT1 expression: 17.6%
[3]; only patients with high LAT1
  Overall survival HR vs placebo, high LAT1: 0.670
[3]; patients with GBC/EHC
  PFS HR vs placebo, EHC and GBC integrated: 0.218
